Assay results as given in patent publication US20210267996A1, “Compounds for inhibition of inflammation” (Children`s Medical Center Corporation, priority 2018, published 2021).
“Also recorded” adds a separate entry of the source. Counter-ions that a name gives are not always drawn. Like-named read-outs stand apart in the source and are kept apart here.

Key:
Human GSDMD = biological target: T1, Human GSDMD (Homo sapiens, UniProt P57764); experiment: Liposome leakage assay (Tb3+/DPA), GSDMD plus caspase-11; type: biochemical
T1 construct: His6-MBP (N, cleaved yes); made in house; host or cells: E. coli BL21 (DE3) for GSDMD; Sf9 for caspase-11
T1 sequence (P57764 1-484): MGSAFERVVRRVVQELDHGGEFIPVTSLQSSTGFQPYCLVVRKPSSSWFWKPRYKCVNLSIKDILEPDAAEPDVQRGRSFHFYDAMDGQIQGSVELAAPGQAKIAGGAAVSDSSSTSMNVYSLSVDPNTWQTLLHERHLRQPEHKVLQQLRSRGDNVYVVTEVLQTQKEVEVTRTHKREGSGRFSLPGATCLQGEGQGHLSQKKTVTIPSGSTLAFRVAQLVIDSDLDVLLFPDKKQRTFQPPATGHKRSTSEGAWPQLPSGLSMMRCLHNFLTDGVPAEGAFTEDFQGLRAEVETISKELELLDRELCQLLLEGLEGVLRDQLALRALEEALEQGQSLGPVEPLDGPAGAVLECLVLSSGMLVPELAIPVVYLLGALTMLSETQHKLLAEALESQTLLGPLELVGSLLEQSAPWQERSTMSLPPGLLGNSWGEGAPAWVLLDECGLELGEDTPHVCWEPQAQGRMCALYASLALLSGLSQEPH
Description: The lipid mixture was suspended in 1 mL Buffer A (20 mM HEPES, 150 mM NaCl, 50 mM sodium citrate, and 15 mM TbCl3) for 3 min. The suspension was pushed through 100 nm Whatman® Nuclepore™ Track-Etched Membrane 30 times to obtain homogeneous liposomes. The filtered suspension was purified by size exclusion column (Superose 6, 10/300 GL) in Buffer B (20 mM HEPES, 150 mM NaCl) to remove TbCl3 outside liposomes. […] The liposomes are diluted to 50 μM with Buffer C (20 mM HEPES, 150 mM NaCl and 50 μM DPA) for use in high-throughput screening.

mouse iBMDMs [1] = experiment: Processing of caspase-1, GSDMD and IL-1β in iBMDMs (immunoblot); type: cell-based; conditions: 1 hr time point
Description: (§1) FIG. 97 contains a bar graph showing results of an experiment where LPS-primed THP-1 cells, after medium removal, were incubated with probe FAM-YVAD-FMK in FLICA assay buffer for another 0.5 hr before fluorescence reading. iBMDMs were pretreated with disulfiram, Bay 11-7082, necrosulfonamide (NSA) or z-VAD-fmk for 1 hr before treated or not with Nigericin for 0.5 hr. Whole cell lysates and culture supernatants were immunoblotted with the indicated antibodies.
as §1, with “FIG. 98” for “FIG. 97”, “for 1” for “for 0.5”
Canonical inflammasome assembly activates caspase-1, which cleaves pro-IL-1β and GSDMD, and the latter is needed to release processed IL-1β and to induce pyroptosis. To assess which steps in NLRP3-mediated inflammation were inhibited post ASC speck formation, LPS-primed THP-1 cells were treated with vehicle, 30 μM z-VAD-fmk or disulfiram 1 hour before adding nigericin, and cleavage and activation of caspase-1, GSDMD, and pro-IL-1β were analysed by immunoblot of whole cell lysates 30 min later and 1 hr later. Secretion of processed IL-1β was also assessed by immunoblot of culture supernatants. […] The 1 hr time point is relevant as the cell death and IL-1β release measurements used cells stimulated with nigericin for 1 and 2 hrs, respectively.

HT-29 cells = experiment: Necroptosis induced by TNFα, SMAC mimetic and z-VAD-fmk; type: cell-based; conditions: SMAC mimetic
Description: Inhibition was shown by cell survival, assessed by CellTiter-Glo ATP luminescence, and membrane permeabilization, assessed by uptake of the membrane-impermeable dye SYTOX Green.

THP-1 cells = experiment: Canonical inflammasome pyroptosis, LPS-primed THP-1 cells plus nigericin; type: cell-based, human; conditions: for inhibition of canonical inflammasome pyroptosis: THP-1, nigericin
Description: Cell viability assay. […] Primed THP-1 cells were pretreated with each test compound for 1 hr before addition of 20 μM nigericin or medium as control. The number of surviving cells was determined by CellTiter-Glo assay 1.5 hrs later. The final percent cell viability was calculated using the formula [(luminescencetest compound−luminescencencenegative control)/(luminescencencepositive control−luminescencenegative control)]×100, where wells with only LPS were used as positive controls and wells treated with LPS and nigericin were used as negative controls.
In FIGS. 4, 6, and 8, PMA-differentiated LPS-primed human THP-1 were pre-treated with indicated concentrations of each compound for 1 h before adding nigericin or medium. The number of surviving cells was determined by CellTiter-Glo assay (FIGS. 4 and 6) and IL-1β in culture supernatants was assessed by ELISA (FIG. 8) 2 hrs later. […] In FIGS. 8 and 9, 40 μM concentration of test compounds were added. […] Graphs show the mean±s.d. and data shown are representative of three independent experiments. **P<0.01.

mouse iBMDMs [2] = experiment: Non-canonical inflammasome pyroptosis, iBMDMs with LPS electroporation; type: cell-based
Description: Cell lines and treatments: THP-1 cells and HEK293T cells (obtained from ATCC) were grown in RPMI with 10% heat-inactivated fetal bovine serum, supplemented with 100 U/ml penicillin G, 100 μg/ml streptomycin sulfate, 6 mM HEPES, 1.6 mM L-glutamine, and 50 μM 2ME. C57BL/6 mouse iBMDM cells were kindly provided by J. Kagan (Boston Children's Hospital) and cultured in DMEM with the same supplements. Cells were verified to be free of mycoplasma contamination. Transient transfection of HEK293T cells was performed using Lipofectamine 2000 (Invitrogen) according to the manufacturer's instructions. iBMDM cells were transfected by nucleofection using the Amaxa Nucleofector kit (VPA-1009). […] To examine IκBα. phosphorylation and degradation as well as IL-1β induction, PMA-differentiated THP-1 cells were stimulated with LPS (1 μg/ml) for 0.5, 1 and 4 hrs, respectively. For noncanoical inflammasome activation, 1 million iBMDM cells were electroporated with 1 μg ultra LPS.
Cytotoxicity and cell viability assays: cell death and cell viability were determined by the lactate dehydrogenase release assay using the CytoTox 96 Non-Radioactive Cytotoxicity Assay kit (Promega) and by measuring ATP levels using the CellTiter-Glo Luminescent Cell Viability Assay (Promega), respectively, according to the manufacturer's instructions. Luminescence and absorbance were measured on a BioTek Synergy 2 plate reader.
In FIGS. 4, 6, and 8, PMA-differentiated LPS-primed human THP-1 were pre-treated with indicated concentrations of each compound for 1 h before adding nigericin or medium. The number of surviving cells was determined by CellTiter-Glo assay (FIGS. 4 and 6) and IL-1β in culture supernatants was assessed by ELISA (FIG. 8) 2 hrs later. In FIGS. 5, 7, and 9, mouse iBMDMs were pre-treated with each test compound for 1 hr before electroporation with PBS or LPS. The number of surviving cells was determined by CellTiter-Glo assay (FIGS. 5 and 7) and IL-1β in culture supernatants was assessed by ELISA (FIG. 9) 2.5 hrs later. In FIGS. 8 and 9, 40 μM concentration of test compounds were added.

[3] = Table 2, leakage assay, read-out: IC50

S=C(SSC(=S)N(c1ccccc1)c1ccccc1)N(c1ccccc1)c1ccccc1 [C-23A5, Tetraphenylthiuram disulfide]
IC50 (Human GSDMD; [3]): 3740 ± 1060 nM

COC(=O)/C=C/C(=O)OC [DMF, dimethyl fumarate]
activity against GSDMD (Human GSDMD; Cys-reactive comparison compounds): lack of activity

S=C(SSC(=S)N1CCOCC1)N1CCOCC1 [C-23A7, di(4-morpholinyl)dithioperoxyanhydride]
IC50 (Human GSDMD; [3]): 250 ± 10 nM

CN(C(=S)SSC(=S)N(C)c1ccncc1)c1ccncc1 [C-23A8, N,N′-Dimethyl-N,N′-di(4-pyridinyl)thiuram disulfide]
IC50 (Human GSDMD; [3]): 1250 ± 10 nM

CCCCN(CCCC)C(=S)SSC(=S)N(CCCC)CCCC [C-23A3, tetrabutylthiuram disulfide]
IC50 (Human GSDMD; [3]): 460 ± 80 nM

CN1CCN(C(=S)SSC(=S)N2CCN(C)CC2)CC1 [C-23A4, 4-Methylpiperazine-1-carbothioic dithioperoxyanhydride]
IC50 (Human GSDMD; [3]): 260 ± 10 nM

S=C(SSC(=S)N1CCCC1)N1CCCC1 [C-23A10, pyrrolidine-1-carbothioic dithioperoxyanhydride]
IC50 (Human GSDMD; [3]): 260 ± 20 nM

COc1nccnc1NS(=O)(=O)c1ccc(NC(=O)/C=C/c2ccc([N+](=O)[O-])s2)cc1 [necrosulfonamide]
processing of caspase-1, GSDMD and IL-1β (mouse iBMDMs [1]): still inhibited processing | necroptosis (HT-29 cells): blocked | times less active than disulfiram at inhibiting liposome leakage (Human GSDMD; GSDMD plus caspase-11): about 30 fold | IC50 (Human GSDMD; WT GSDMD, caspase-11-triggered, read-out: IC50 of liposome leakage): 9500 ± 430 nM

COc1ccc(-c2cc(=S)ss2)cc1 [C-22]
inhibition of canonical inflammasome pyroptosis (THP-1 cells): Only C-23 blocked pyroptosis | inhibition of non-canonical inflammasome pyroptosis (mouse iBMDMs [2]): Only C-23 blocked pyroptosis

S=C(SSC(=S)N1CCCCC1)N1CCCCC1 [C-23A9, dicyclopentamethylenethiuram disulfide]
IC50 (Human GSDMD; [3]): 260 ± 3 nM

S=C(SSC(=S)N(Cc1ccccc1)Cc1ccccc1)N(Cc1ccccc1)Cc1ccccc1 [C-23A12, Tetrabenzylthiuram disulfide]
IC50 (Human GSDMD; [3]): 2930 ± 1070 nM

CCN(CC)C(=S)S [DTC, diethyldithiocarbamate]
activity in cells in the presence of Cu2+ (THP-1 cells; with Cu2+): almost as active as C-23; also recorded: almost as active as disulfiram | effect of Cu2+ on protection of LPS-primed THP-1 cells from pyroptosis (THP-1 cells; with Cu2+): strongly promoted | effect of copper gluconate (Cu2+) on inhibition of liposome leakage (Human GSDMD; with Cu2+): only weakly increased

Cc1c(-c2cnccn2)ssc1=S [C-24]
inhibition of canonical inflammasome pyroptosis (THP-1 cells): Only C-23 blocked pyroptosis | inhibition of non-canonical inflammasome pyroptosis (mouse iBMDMs [2]): Only C-23 blocked pyroptosis

CN(C)C(=S)SSC(=S)N(C)C [C-23A1, tetramethylthiuram disulfide]
IC50 (Human GSDMD; [3]): 220 ± 10 nM

CC(C)N(C(=S)SSC(=S)N(C(C)C)C(C)C)C(C)C [C-23A2, Tetraisopropylthiuram disulfide]
IC50 (Human GSDMD; [3]): 370 ± 10 nM

CN1C(=O)C(Cc2c[nH]c3ccccc23)NC1=S (stereo not shown) [necrostatin-1]
necroptosis (HT-29 cells): blocked

Cc1ccc(N(C)C(=S)SSC(=S)N(C)c2ccc(C)cc2)cc1 [C-23A6, N,N′-Dimethyl-N,N′-(4,4′-dimethyldiphenyl)thiuram disulfide]
IC50 (Human GSDMD; [3]): 350 ± 30 nM

CN(C(=S)SSC(=S)N(C)c1ccccc1)c1ccccc1 [C-23A11, dimethyldiphenylthiuram disulfide]
IC50 (Human GSDMD; [3]): 370 ± 10 nM
